These results are taken from patent US7056693B2 (priority 1998, dated 2006).

This test deals with National Cancer Institute's 60 cell line. The format is cell-based.

With “2-(2′-amino-3′-methoxyphenyl)-oxanaphthalen-4-one [PDO9859]”, the “Activity profile in the 60 cell line database compared with LF” value is recorded as “activity profile that is similar to LF”.
